Measured values reported in patent publication US10940118B2, “Nanoparticles and methods of producing the same” (THE BOARD OF TRUSTEES OF THE UNIVERSITY OF ILLINOIS, priority 2013, dated 2021).

Tests used:
[1] = system: ICR mice; experiment: 52° C. warm-water tail-flick test, acute morphine tolerance; type: in vivo; conditions: oral administration following subcutaneous injection of morphine
Method: Basal nociception and morphine-induced antinociception were studied using the 52° C. warm-water tail-flick test. In brief, mice were held over the water bath and one third of the distal portion of the tail was immersed into the water. The latency to a quick tail-flick response was recorded as a base-line measurement. Any mouse not responding within 5 sec was excluded from further experiment. To prevent tissue damage, a cut-off time of 12 sec was applied. Morphine-induced antinociception was evaluated 30 min after the injection of a testing dose of morphine (10 mg/kg s.c.), and expressed as the percentage of maximal possible effect (% MPE) according to the following formula: % MPE=100×(postdrug latency−predrug latency)/(cut off−predrug latency)
To induce acute tolerance and dependence, separate groups of three ICR mice (20-25 g) were treated with a large dose of morphine (100 mg/kg s.c.). Maximal morphine tolerance and dependence peaked at approximately 4 to 6 h. Mice in the control group received an equal volume of saline. Tolerance to opioids was assessed 4.5 h later by monitoring the antinociceptive effect produced by a test dose of morphine (10 mg/kg, s.c.). The presence of opioid tolerance was signified by a significant reduction of antinociceptive effect. […] Mice were immediately placed inside glass cylinders, and naloxone-induced vertical jumps were recorded for 15 min. […]

[2] = system: ICR mice; experiment: Hot plate test, acute morphine tolerance; type: in vivo; conditions: oral administration following subcutaneous injection of morphine
Method: For assessment of response latencies to thermal stimulus in mice, a Cold/Hot Plate Analgesia Meter (Ugo Basile, Comerio, Italy) was used. In this study, mice were placed on a hot plate that was thermostatically maintained at 55±1° C. The nociceptive response was evaluated as the latency to the first licking or lifting of the rear paws or escape jumping. Mice were removed from the hot plate immediately after displaying the response and a cut-off time of 30 sec was set to prevent tissue damage. The anti-nociceptive effect was measured using the same percentage of maximal possible effect (% MPE) as above.
To induce acute tolerance and dependence, separate groups of three ICR mice (20-25 g) were treated with a large dose of morphine (100 mg/kg s.c.). Maximal morphine tolerance and dependence peaked at approximately 4 to 6 h. Mice in the control group received an equal volume of saline. Tolerance to opioids was assessed 4.5 h later by monitoring the antinociceptive effect produced by a test dose of morphine (10 mg/kg, s.c.). The presence of opioid tolerance was signified by a significant reduction of antinociceptive effect. To examine dependence on opioids, mice were challenged with naloxone (10 mg/kg i.p.) 5h after the administration of morphine (100 mg/kg s.c.). Mice were immediately placed inside glass cylinders, and naloxone-induced vertical jumps were recorded for 15 min. […]

COc1cc(C=CC(=O)CC(=O)C=Cc2ccc(O)c(OC)c2)ccc1O [unformulated curcumin, 1,7-bis-(4-hydroxy-3-methoxyphenyl)-1,6-heptadiene-3,5-dione]
Analgesia in tail-flick test [1]: minimal effect
Analgesia in hot plate test [2]: minimal effect
